Experiments:
Assay type in all cases: functional, cell-based
A549 = experiment: Cytotoxicity against human A549 cells by MTT assay
HL-60 = experiment: Cytotoxicity against human HL60 cells by MTT assay
PANC-1 = experiment: Cytotoxicity against human PANC1 cells by MTT assay
SMMC-7721 = experiment: Cytotoxicity against human SMMC7721 cells by MTT assay
SK-BR-3 = experiment: Cytotoxicity against human SKBR3 cells by MTT assay

Measured: IC50

C/C=C(\C)C(=O)OC[C@]1(O)[C@H]2C[C@H]2[C@]2(C)[C@@H]3C[C@@]4(O)C5=C(C6=C(C)C(=O)O[C@]6(O)C(=O)[C@@]5(C)[C@@H]5C[C@@H]54)[C@@]34OC(=O)C(CO)=C4C[C@@H]12 [CHLORAMULTIOL D]
> 10 µM: all assays above

CC1=C2C3=C4[C@](C)([C@@H]5C[C@@H]5[C@@]4(O)C[C@@H]4[C@]35OC(=O)C3=C5C[C@H]5[C@](O)(COC(=O)/C(C)=C/COC(=O)CCC(=O)OC3)[C@H]3C[C@H]3[C@]45C)[C@@H](O)[C@@]2(O)OC1=O [CHLORAMULTILIDE C]
> 10 µM: all assays above

COC(=O)/C(C)=C1/C(=O)[C@H](O)[C@]2(C)C3=C1[C@]14OC(=O)C(COC(C)=O)=C1C[C@H]1C[C@H]5C[C@H]5[C@]1(C)[C@@H]4C[C@]3(O)[C@H]1C[C@H]12 [SHIZUKAOL D]
> 10 µM: all assays above

C/C=C(\C)C(=O)OCC1=C2C[C@H]3[C@H](O)[C@H]4C[C@H]4[C@]3(C)[C@@H]3C[C@@]4(O)C5=C(/C(=C(/C)C(=O)OC)C(=O)[C@H](O)[C@@]5(C)[C@@H]5C[C@@H]54)[C@]23OC1=O [SHIZUKAOL C]
> 10 µM: all assays above

CO[C@]12OC(=O)C(C)=C1C1=C3C(=C[C@@H]4[C@]15OC(=O)C1=C5C[C@H]5[C@](O)(COC(=O)/C(C)=C/COC(=O)CCC(=O)OC1)[C@H]1C[C@H]1[C@]45C)[C@H]1C[C@H]1[C@]3(C)[C@H]2O [CHLORAMULTIOL F]
> 10 µM: all assays above

CC1=C2C3=C4[C@@](C)(C(=O)[C@@]2(O)OC1=O)[C@@H]1C[C@@H]1[C@@]4(O)C[C@@H]1[C@]32OC(=O)C3=C2C[C@H]2[C@](O)(COC(=O)/C(C)=C/COC(=O)CCC(=O)OC3)[C@H]3C[C@H]3[C@]12C [SPICACHLORANTIN B]
> 10 µM: all assays above

CC(=O)OC[C@@H]1[C@H]2C[C@H]2[C@]2(C)[C@@H]3C[C@@]4(O)C5=C(C6=C(C)C(=O)O[C@]6(O)[C@H](O)[C@@]5(C)[C@@H]5C[C@@H]54)[C@@]34OC(=O)C(CO)=C4C[C@@H]12 [CHLORAMULTIOL E]
> 10 µM: all assays above

C/C=C(\C)C(=O)OC[C@]1(O)[C@H]2C[C@H]2[C@]2(C)[C@@H]3C[C@@]4(O)C5=C(C6=C(C)C(=O)O[C@]6(OC)[C@H](O)[C@@]5(C)[C@@H]5C[C@@H]54)[C@@]34OC(=O)C(CO)=C4C[C@@H]12 [CHLORAMULTIOL C]
> 10 µM: all assays above

COC(=O)[C@]1(C)CC2=C3C=C(C(=O)[C@H](O)[C@@]3(C)[C@@H]3C[C@H]23)[C@](C)(C(=O)OC)CC2=C3C=C1C(=O)[C@H](O)[C@@]3(C)[C@@H]1C[C@H]21 [Cycloshizukaol A]
> 10 µM: all assays above

COC(=O)/C(C)=C1\C(=O)[C@H](O)[C@]2(C)C3=C([C@H]4C[C@H]42)[C@H](O)[C@@H]2[C@]4(OC(=O)C5=C4C[C@H]4[C@](O)(COC(=O)/C(C)=C/COC(=O)CCC(=O)OC5)[C@H]5C[C@H]5[C@]24C)[C@H]31 [CHLORAMULTIOL A]
> 10 µM: all assays above

C/C=C(\C)C(=O)OC[C@]1(O)[C@H]2C[C@H]2[C@]2(C)[C@@H]3C[C@@]4(O)C5=C(C6=C(C)C(=O)O[C@]6(O)[C@H](O)[C@@]5(C)[C@@H]5C[C@@H]54)[C@@]34OC(=O)C(CO)=C4C[C@@H]12 [CHLORAMULTILIDE D]
> 10 µM: all assays above

CC1=C2C3=C4[C@](C)([C@@H]5C[C@@H]5[C@@]4(O)C[C@@H]4[C@]35OC(=O)C(CO)=C5C[C@H]3[C@](O)(CO)[C@H]5C[C@H]5[C@]43C)[C@@H](O)[C@@]2(O)OC1=O [CHLORAMULTIOL B]
> 10 µM: all assays above

Reference: ChEMBL document CHEMBL1158587, “Chloramultiols A-F, lindenane-type sesquiterpenoid dimers from Chloranthus multistachys” (J Nat Prod, 2010)
